Source: patent US12678400B2, “Implantable devices for drug delivery with reduced burst release” (TITAN PHARMACEUTICALS, INC., priority 2016, dated 2026)

Assay: Particle size of spray-dried porogen powders by optical microscope
Format: physicochemical
Details: spray dried from ethanol solution
Text: Citric acid and benzoic acid were spray dried from ethanol solution (10% w/v solids) using a ProCepT model 4M8 system. The citric acid was collected in a single fraction in about 65% yield, while the benzoic acid was collected in two fractions with a total yield of around 55%. The powders were characterized for particle size and morphology using an Olympus BX60 optical microscope. […] The two preparations of benzoic acid differed primarily by the preponderance of ribbon-like particles in the second fraction. The citric acid powder blend was appreciably more dense than the benzoic acid powder blends, and the latter required more careful sweeping of the feeder hopper to promote conveyance. However, the ultimate extrusion, molding, and physical handling characteristics were similar between the blends.

O=C(O)c1ccccc1 [benzoic acid]
Particle size: 30-150 μm

O=C(O)CC(O)(CC(=O)O)C(=O)O [citric acid]
Particle size: 10-20 μm
